ChEMBL document CHEMBL3217717, “Synthesis and antiproliferative activity of novel erythromycin derivatives” (Medchemcomm, 2010)

Key:
Type in all cases: functional, cell-based
[1] = Cytotoxicity against human SGC7901 cells assessed as growth inhibition after 48 hrs by MTT assay; conditions: SGC-7901, 48 h
KB = assay: Cytotoxicity against human KB cells assessed as growth inhibition after 48 hrs by MTT assay
[2] = Cytotoxicity against human HT1080 cells assessed as growth inhibition after 48 hrs by MTT assay; conditions: HT-1080, 48 h

Row | SMILES | IC50 [1] | IC50 (KB) | IC50 [2]
1 | CC[C@H]1OC(=O)[C@H](C)[C@@H](O[C@H]2C[C@@](C)(OC)[C@@H](O)[C@H](C)O2)[C@H](C)[C@@H](O[C@@H]2O[C@H](C)C[C@H](N(C)CCN(C)[C@H]3C[C@@H](C)O[C@@H](O[C@@H]4[C@@H](C)[C@H](O[C@H]5C[C@@](C)(OC)[C@@H](O)[C@H](C)O5)[C@@H](C)C(=O)O[C@H](CC)[C@@](C)(O)[C@H](O)[C@@H](C)/C(=N\OCOCCOC)[C@H](C)C[C@@]4(C)O)[C@@H]3O)[C@H]2O)[C@](C)(O)C[C@@H](C)/C(=N/OCOCCOC)[C@H](C)[C@@H](O)[C@]1(C)O | > 100 µM | 5.5 µM | 3.5 µM
2 | CC[C@H]1OC(=O)[C@H](C)[C@@H](O[C@H]2C[C@@](C)(OC)[C@@H](O)[C@H](C)O2)[C@H](C)[C@@H](O[C@@H]2O[C@H](C)C[C@H](N(C)CCN(C)[C@H]3C[C@@H](C)O[C@@H](O[C@@H]4[C@@H](C)[C@H](O[C@H]5C[C@@](C)(OC)[C@@H](O)[C@H](C)O5)[C@@H](C)C(=O)O[C@H](CC)[C@@](C)(O)[C@H](O)[C@@H](C)C(=O)[C@H](C)C[C@@]4(C)OC)[C@@H]3O)[C@H]2O)[C@](C)(O)C[C@@H](C)[C@H](O)[C@H](C)[C@@H](O)[C@]1(C)O | 39.8 µM | 28.5 µM | 20.4 µM
3 | CC[C@H]1OC(=O)[C@H](C)[C@@H](O[C@H]2C[C@@](C)(OC)[C@@H](O)[C@H](C)O2)[C@H](C)[C@@H](O[C@@H]2O[C@H](C)C[C@H](N(C)CCN(C)[C@H]3C[C@@H](C)O[C@@H](O[C@@H]4[C@@H](C)[C@H](O[C@H]5C[C@@](C)(OC)[C@@H](O)[C@H](C)O5)[C@@H](C)C(=O)O[C@H](CC)[C@@](C)(O)[C@H](O)[C@@H](C)/C(=N\OCOCCOC)[C@H](C)C[C@@]4(C)O)[C@@H]3O)[C@H]2O)[C@](C)(OC)C[C@@H](C)/C(=N/O)[C@H](C)[C@@H](O)[C@]1(C)O | 22.1 µM | 14.7 µM | 6.3 µM
4 | CC[C@H]1OC(=O)[C@H](C)[C@@H](O[C@H]2C[C@@](C)(OC)[C@@H](O)[C@H](C)O2)[C@H](C)[C@@H](O[C@@H]2O[C@H](C)C[C@H](N(C)CCN(C)[C@H]3C[C@@H](C)O[C@@H](O[C@@H]4[C@@H](C)[C@H](O[C@H]5C[C@@](C)(OC)[C@@H](O)[C@H](C)O5)[C@@H](C)C(=O)O[C@H](CC)[C@@](C)(O)[C@H](O)[C@@H](C)/C(=N\OCOCCOC)[C@H](C)C[C@@]4(C)O)[C@@H]3O)[C@H]2O)[C@](C)(O)C[C@@H](C)/C(=N/O)[C@H](C)[C@@H](O)[C@]1(C)O | 7.2 µM | 18.6 µM | 16.2 µM
5 | CC[C@H]1OC(=O)[C@H](C)[C@@H](O[C@H]2C[C@@](C)(OC)[C@@H](O)[C@H](C)O2)[C@H](C)[C@@H](O[C@@H]2O[C@H](C)C[C@H](N(C)CC(=O)N(C)[C@H]3C[C@@H](C)O[C@@H](O[C@@H]4[C@@H](C)[C@H](O[C@H]5C[C@@](C)(OC)[C@@H](O)[C@H](C)O5)[C@@H](C)C(=O)O[C@H](CC)[C@@](C)(O)[C@H](O)[C@@H](C)C(=O)[C@H](C)C[C@@]4(C)O)[C@@H]3O)[C@H]2O)[C@](C)(OC)C[C@@H](C)C(=O)[C@H](C)[C@@H](O)[C@]1(C)O | > 100 µM | > 100 µM | > 100 µM
6 | CC[C@H]1OC(=O)[C@H](C)[C@@H](O[C@H]2C[C@@](C)(OC)[C@@H](O)[C@H](C)O2)[C@H](C)[C@@H](O[C@@H]2O[C@H](C)C[C@H](N(C)CCN(C)[C@H]3C[C@@H](C)O[C@@H](O[C@@H]4[C@@H](C)[C@H](O[C@H]5C[C@@](C)(OC)[C@@H](O)[C@H](C)O5)[C@@H](C)C(=O)O[C@H](CC)[C@@](C)(O)[C@H](O)[C@@H](C)[C@@H](O)[C@H](C)C[C@@]4(C)O)[C@@H]3O)[C@H]2O)[C@](C)(O)C[C@@H](C)[C@H](O)[C@H](C)[C@@H](O)[C@]1(C)O | 61.6 µM | 44.9 µM | > 100 µM
